In series [1] the test system is MDA-MB-231 and MCF7 breast cancer cells. In kind it is cell-based. The following applies: for EC50: 72 h, read-out: EC50 (span over series and cell lines); for effect of substitution on activity compared to MKT-077: either cell line (MDA-MB-231, MCF7).
Another series concerns the target human Hsc70 (Homo sapiens, UniProt P11142). Briefly: ELISA binding of biotinylated analogs to immobilized Hsc70.
Series [2] deals with fibroblasts or normal epithelial cells. The following applies: cited from earlier work.
Series [3] deals with mouse embryonic fibroblasts (MEFs). Briefly: MTT toxicity assay, mouse embryonic fibroblasts. The following applies: for EC50: Mus musculus, Fibroblast. In kind it is cell-based.
Series [4] relates to MDA-MB-231 and MCF7 cells. In words: p62 oligomerization / autophagic flux. In kind it is cell-based. The following applies: 24 h.
In the next series the test system is MDA-MB-231 cells. In words: Cleavage of caspase-3 and PARP. The following applies: 48 h. Type of series: cell-based.
The next series relates to MCF7 breast cancer cells. In words: MTT anti-proliferative assay, MCF7 cells. Type of series: cell-based.
For series [5], the system named is MDA-MB-231 breast cancer cells. In words: MTT anti-proliferative assay, MDA-MB-231 cells. Type of series: cell-based.

Structures are written as SMILES. Where only a bound is given, the exact number is not on record here.

Sequence of human Hsc70 (P11142 whole entry): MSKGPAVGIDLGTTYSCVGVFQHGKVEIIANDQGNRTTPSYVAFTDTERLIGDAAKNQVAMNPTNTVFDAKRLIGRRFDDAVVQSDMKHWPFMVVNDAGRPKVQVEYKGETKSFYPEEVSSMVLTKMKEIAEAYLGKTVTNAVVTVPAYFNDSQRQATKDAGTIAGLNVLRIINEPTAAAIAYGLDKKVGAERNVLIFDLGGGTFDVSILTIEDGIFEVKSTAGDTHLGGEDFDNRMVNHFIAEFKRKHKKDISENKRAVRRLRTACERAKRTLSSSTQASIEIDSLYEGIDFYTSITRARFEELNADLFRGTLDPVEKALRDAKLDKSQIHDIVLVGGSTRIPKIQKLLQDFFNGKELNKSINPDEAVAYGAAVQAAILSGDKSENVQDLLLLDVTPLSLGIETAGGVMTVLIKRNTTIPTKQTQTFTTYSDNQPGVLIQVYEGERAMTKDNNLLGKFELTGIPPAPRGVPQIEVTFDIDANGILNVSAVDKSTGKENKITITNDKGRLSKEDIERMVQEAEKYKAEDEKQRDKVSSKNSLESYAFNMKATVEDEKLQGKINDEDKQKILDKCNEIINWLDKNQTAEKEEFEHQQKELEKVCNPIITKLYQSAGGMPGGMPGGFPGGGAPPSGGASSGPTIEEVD

Regarding `CCn1c(=O)/c(=C2\Sc3c(F)cccc3N2C)s/c1=C\c1cccc[n+]1CC` [compound 8], in series [1], the 50% effective concentration (EC50) is 0.8 to 13 µM.

Regarding `CCn1c(=O)/c(=C2\Sc3cccc(Cl)c3N2C)s/c1=C\c1cccc[n+]1CCCCCCNC(=O)CCCC[C@@H]1SC[C@@H]2NC(=O)N[C@@H]21` [compound 38], at human Hsc70, the dissociation constant (Kd) is 7.7 ± 1 µM. For `CCn1c(=O)/c(=C2\Sc3ccc(F)cc3N2C)s/c1=C\c1cccc[n+]1C` [compound 2], the EC50 in series [1] lay within 2.2 to 18 µM.

Take `CCn1c(=O)/c(=C2\Sc3cccc(F)c3N2C)s/c1=C\c1cccc[n+]1CC` [compound 5]: the EC50 in series [1] is 0.8 to 13 µM.

Turning to `CCn1c(=O)/c(=C2\Sc3cccc(F)c3N2C)s/c1=C\c1cccc[n+]1C` [compound 1], the EC50 in series [1] fell in the range of 2.2 to 18 µM. In the case of `CCn1c(=O)/c(=C2\Sc3ccccc3N2C)s/c1=C\c1nccc[n+]1C.[Cl-]` [compound 23], the “fold reduction in potency” value in series [1] (compared to MKT-077) is “approximately 2 fold”. As for `CCn1c(=O)/c(=C2\Sc3ccccc3N2C)s/c1=C\c1cccc[n+]1CC.[Cl-]` [MKT-077, reference compound], the “toxicity to fibroblasts or normal epithelial cells” value in series [2] is “not toxic”. Further, the EC50 in series [3] is > 50 µM. `CCn1c(=O)/c(=C2\Sc3cc(C(F)(F)F)ccc3N2C)s/c1=C\c1cccc[n+]1C` [compound 16]: the EC50 in series [1] is 3 to 30 µM. `CCn1c(=O)/c(=C2\Sc3cc(Cl)ccc3N2C)s/c1=C\c1cccc[n+]1C` [compound 11]: the EC50 in series [1] is 4.1 to 28 µM. For the compound `CCn1c(=O)/c(=C2\Sc3ccc(F)cc3N2C)s/c1=C\c1cccc[n+]1CC` [compound 6], the EC50 in series [1] was in the range of 0.8 to 13 µM. The same measure, in the same setting: the same measure for `CCn1c(=O)/c(=C2\Sc3cccc(Cl)c3N2C)s/c1=C\c1cccc[n+]1C` [compound 9]: 4.1 to 28 µM. Regarding `CCn1c(=O)/c(=C2\Sc3cc(Cl)ccc3N2C)s/c1=C\c1scc[n+]1Cc1ccccc1.[Cl-]` [compound 30], the “autophagic flux (p62 oligomerization, p62 monomer)” value in series [4] is given as “strongly affected autophagic flux”. Moreover, the “activity against MEFs compared to MKT-077” value in series [3] is recorded as “increased activity against MEFs”. Besides, in the series with MDA-MB-231 cells, the “cleavage of caspase-3 and PARP” value is listed as “activated”. `CCn1c(=O)/c(=C2\Sc3cc(F)ccc3N2C)s/c1=C\c1cccc[n+]1C` [compound 3]: the EC50 in series [1] lay within 2.2 to 18 µM. In the case of `CN1/C(=c2\s/c(=C\c3cccc[n+]3C)n(Cc3ccccc3)c2=O)Sc2ccccc21.[Cl-]` [compound 18], the “effect of substitution on activity compared to MKT-077” value in series [1] is recorded as “did not substantially affect activity”. Take `CCn1c(=O)/c(=C2\Sc3cc(OC)ccc3N2C)s/c1=C\c1cccc[n+]1C` [compound 14]: the EC50 in series [1] was in the range of 3 to 30 µM. Same read-out and setting: the same measure for `CCn1c(=O)/c(=C2\Sc3ccc(C(F)(F)F)cc3N2C)s/c1=C\c1cccc[n+]1C` [compound 15]: 3 to 30 µM. In the case of `CCn1c(=O)/c(=C2\Sc3ccccc3N2C)s/c1=C\c1scc[n+]1C.[Cl-]` [compound 24], in the series with MCF7 breast cancer cells, the “fold improvement in potency compared to MKT-077” value (shortened to “fold improvement in potency”) worked out at 3 fold. Consider `CCn1c(=O)/c(=C2\Sc3cccc(F)c3N2C)s/c1=C\c1scc[n+]1Cc1ccccc1.[Cl-]` [compound 27], for which the “fold improvement in potency” value is recorded as “more than 3 fold” in series [5] and 2 fold in the series on MCF7 breast cancer cells. For the same compound, the “activity against MEFs compared to MKT-077” value in series [3] is on record as “increased activity against MEFs”. Turning to `CCn1c(=O)/c(=C2\Sc3cccc(F)c3N2C)s/c1=C\c1cccc[n+]1CCCCCCNC(=O)CCCC[C@@H]1SC[C@@H]2NC(=O)N[C@@H]21` [compound 34], the affinity on human Hsc70, expressed as Kd, was 10.9 ± 4.4 µM. Turning to `CCn1c(=O)/c(=C2\Sc3ccccc3N2C)s/c1=C\c1scc[n+]1Cc1ccccc1.[Cl-]` [compound 26], the results for the “fold improvement in potency” value (in series [5]; in the series with MCF7 breast cancer cells) were 2 fold and 4 fold, respectively. Take `CCn1c(=O)/c(=C2\Sc3c(F)cccc3N2C)s/c1=C\c1cccc[n+]1C` [compound 4]: the concentration for a half-maximal effect (EC50) in series [1] was in the range of 2.2 to 18 µM. In the case of `C=CCn1c(=O)/c(=C2\Sc3ccccc3N2C)s/c1=C\c1cccc[n+]1C.[Cl-]` [compound 17], the “effect of substitution on activity compared to MKT-077” value in series [1] is “did not substantially affect activity”. Compound `CCn1c(=O)/c(=C2\Sc3cccc(F)c3N2C)s/c1=C\c1scc[n+]1Cc1ccc(CNC(=O)CCCC[C@@H]2SC[C@@H]3NC(=O)N[C@@H]32)cc1` [compound 32] showed a Kd on human Hsc70 of 2.4 ± 0.4 µM. As for `CCn1c(=O)/c(=C2\Sc3ccccc3N2C)s/c1=C\c1cccc[n+]1Cc1ccccc1.[Cl-]` [compound 20], in series [1] (MDA-MB-231 and MCF7 cells), the “fold improvement in activity compared to MKT-077” value is reported as “approximately 2 fold”.

As for `CCn1c(=O)/c(=C2\Sc3c(Cl)cccc3N2C)s/c1=C\c1cccc[n+]1C` [compound 12], the EC50 in series [1] lay within 4.1 to 28 µM. Regarding `CCn1c(=O)/c(=C2\Sc3ccc(Cl)cc3N2C)s/c1=C\c1cccc[n+]1C` [compound 10], in series [1], the EC50 is 4.1 to 28 µM. Still for that read-out and setting: the same measure for `CCn1c(=O)/c(=C2\Sc3ccc(OC)cc3N2C)s/c1=C\c1cccc[n+]1C` [compound 13]: 3 to 30 µM. With `CCn1c(=O)/c(=C2\Sc3ccccc3N2C)s/c1=C\c1cccc[n+]1C.[Cl-]` [YM-01, reference compound], the “toxicity to fibroblasts or normal epithelial cells” value in series [2] is given as “not toxic”. Besides, the EC50 in series [3] was > 50 µM.

Turning to `CCn1c(=O)/c(=C2\Sc3cc(F)ccc3N2C)s/c1=C\c1cccc[n+]1CC` [compound 7], the EC50 in series [1] is 0.8 to 13 µM.

The record behind these values is publication PMC3845967 (ACS medicinal chemistry letters, 2013).
